From patent US4734410A, “Lactam derivatives and their use as hypotensive agents” (Sankyo Company Limited, priority 1985, dated 1988)

System: angiotensin I-induced hypertension
Test: inhibitory effect on angiotensin I-induced hypertension in vivo after oral administration to rats
Conditions: not given
Protocol: In addition, the compounds of Examples 2, 3, 7, 10 and 12 were tested in vivo. Each of these test compounds was administered orally to rats and its inhibitory effect on angiotensin I-induced hypertension was determined.

Row | SMILES | inhibitory effect on angiotensin I-induced hypertension
1 | CCCCOC(=O)[C@H](CCc1ccccc1)N[C@H]1CC[C@H](c2ccc(F)cc2)CN(CC(=O)O)C1=O.Cl [Example 10, α-{3(S)-[1(S)-Butoxycarbonyl-3-phenylpropylamino]-6(R)-(p-fluorophenyl)-2-oxoperhydroazepin-1-yl}acetic acid hydrochloride] | strong and lasting inhibitory effects
2 | CCOC(=O)[C@H](CCc1ccccc1)N[C@H]1CC[C@H](c2ccccc2)CN(CC(=O)O)C1=O.Cl (single isomer, unassigned) [Example 2] | strong and lasting inhibitory effects
3 | CCOC(=O)[C@H](CCc1ccccc1)N[C@H]1CC[C@H](c2ccc(F)cc2)CN(CC(=O)O)C1=O.Cl [Example 7, α-{3(S)-[1(S)-Ethoxycarbonyl-3-phenylpropylamino]-6(R)-(p-fluorophenyl)-2-oxoperhydroazepin-1-yl}acetic acid hydrochloride] | strong and lasting inhibitory effects
4 | CCCCOC(=O)[C@H](CCc1ccccc1)N[C@H]1CC[C@H](c2ccccc2)CN(CC(=O)O)C1=O.Cl [Example 12, α-{3(S)-[1(S)-Butoxycarbonyl-3-phenylpropylamino]-2-oxo-6(R)-phenylperhydroazepin-1-yl}acetic acid hydrochloride] | strong and lasting inhibitory effects
5 | CCOC(=O)[C@H](CCc1ccccc1)N[C@H]1CC[C@@H](c2ccccc2)CN(CC(=O)O)C1=O.Cl (single isomer, unassigned) [Example 3] | strong and lasting inhibitory effects

Biological target: T1, ACE (Oryctolagus cuniculus, UniProt P12822)
T1 construct: ACE extracted from rabbit lungs; from tissue; host or cells: rabbit lung
T1 sequence (P12822 34-1310): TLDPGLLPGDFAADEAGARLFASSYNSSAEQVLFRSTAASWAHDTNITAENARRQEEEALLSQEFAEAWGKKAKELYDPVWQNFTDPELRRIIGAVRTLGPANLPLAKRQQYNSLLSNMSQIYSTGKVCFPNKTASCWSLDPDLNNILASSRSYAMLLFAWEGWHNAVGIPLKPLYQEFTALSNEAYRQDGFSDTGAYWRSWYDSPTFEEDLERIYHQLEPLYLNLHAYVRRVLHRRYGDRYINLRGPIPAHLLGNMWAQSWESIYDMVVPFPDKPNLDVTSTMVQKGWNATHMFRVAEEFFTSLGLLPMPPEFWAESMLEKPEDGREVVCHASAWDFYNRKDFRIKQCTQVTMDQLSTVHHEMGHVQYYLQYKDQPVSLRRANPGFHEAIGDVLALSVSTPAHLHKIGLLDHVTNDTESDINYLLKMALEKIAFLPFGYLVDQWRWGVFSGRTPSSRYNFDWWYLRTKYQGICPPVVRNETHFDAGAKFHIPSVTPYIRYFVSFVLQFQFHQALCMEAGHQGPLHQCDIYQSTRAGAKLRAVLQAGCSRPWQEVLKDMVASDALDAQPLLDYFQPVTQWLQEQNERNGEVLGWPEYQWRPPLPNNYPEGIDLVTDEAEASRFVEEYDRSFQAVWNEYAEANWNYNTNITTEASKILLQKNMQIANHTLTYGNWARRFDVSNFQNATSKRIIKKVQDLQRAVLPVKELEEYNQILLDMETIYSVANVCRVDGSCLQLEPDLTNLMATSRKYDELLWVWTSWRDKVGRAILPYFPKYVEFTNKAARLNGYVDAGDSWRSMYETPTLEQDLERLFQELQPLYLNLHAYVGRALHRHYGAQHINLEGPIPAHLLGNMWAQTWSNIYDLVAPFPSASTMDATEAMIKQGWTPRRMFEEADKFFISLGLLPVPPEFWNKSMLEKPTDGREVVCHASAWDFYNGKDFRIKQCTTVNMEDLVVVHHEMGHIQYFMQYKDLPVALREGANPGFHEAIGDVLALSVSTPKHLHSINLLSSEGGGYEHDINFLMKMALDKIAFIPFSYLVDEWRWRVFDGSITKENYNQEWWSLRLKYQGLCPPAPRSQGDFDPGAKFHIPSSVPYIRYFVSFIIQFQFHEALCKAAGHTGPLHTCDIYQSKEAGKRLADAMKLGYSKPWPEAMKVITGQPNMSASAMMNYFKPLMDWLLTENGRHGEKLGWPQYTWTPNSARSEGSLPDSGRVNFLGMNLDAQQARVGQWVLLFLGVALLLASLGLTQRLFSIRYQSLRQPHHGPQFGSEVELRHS
Test: in vitro inhibition of ACE (procedure of D. W. Cushman et al., hippurylhistidylleucine substrate)
Type: biochemical
Conditions: ACE extracted from rabbit lungs, pH 8.3, 37° C., 30 minutes, hippuric acid at 228 nm
Excerpt: As noted above, the compounds of the present invention have the ability to inhibit the activity of ACE, the enzyme which converts angiotensin I to angiotensin II and also inactivates bradykinin. The physiological activity of the compounds of the invention can be evaluated by determining the concentration of the test compound required to inhibit the activity of ACE by 50% in vitro (IC50), for example by the procedure of D. W. Cushman et al. [Biochemical Pharmacology, 20, 1637 (1971)]. Specifically, solutions of ACE extracted from rabbit lungs and, as substrate, hippurylhistidylleucine, to which had been added the test compound at various concentrations, were added to a borate buffer solution containing sodium chloride, and the pH was adjusted to a value of 8.3. The enzymatic reaction was allowed to proceed at 37° C. for 30 minutes, after which time the reaction was terminated by adding 1N aqueous hydrochloric acid. The hippuric acid formed by this reaction was extracted with ethyl acetate and the solvent was then distilled from the extract. The residual hippuric acid was dissolved in water. The amount of hippuric acid in the resulting aqueous solution was determined by the absorbency to ultraviolet radiation at 228 nm. The resulting values were then plotted to form a curve indicating the relationship between the amount of hippuric acid formed and the concentration of the test compound. The IC50 value can be obtained by reading on this curve the concentration of the test compound which reduces the amount of hippuric acid formed to one half of that formed when no test compound is present.

Row | IC50 | SMILES
6 | 2 nM | O=C(O)CN1C[C@H](c2ccccc2)CC[C@H](N[C@@H](CCc2ccccc2)C(=O)O)C1=O (single isomer, unassigned) [Test Compound B]
7 | 1.4 nM | O=C(O)CN1C[C@@H](c2ccccc2)CC[C@H](N[C@@H](CCc2ccccc2)C(=O)O)C1=O (single isomer, unassigned) [Test Compound A]
8 | 1.7 nM | O=C(O)CN1C[C@@H](c2ccc(F)cc2)CC[C@H](N[C@@H](CCc2ccccc2)C(=O)O)C1=O [Test Compound C, α-{3(S)-[1(S)-carboxy-3-phenylpropylamino]-6(R)-(p-fluorophenyl)-2-oxoperhydroazepin-1-yl}acetic acid]
